Where a name gives a salt, the structure may show the parent alone. Read-outs that look alike come from different tables or passages of the source.
Assays:
[1] = target: T1, 20S proteasomes isolated from murine B8 fibroblasts (Mus musculus, UniProt O55234+P70195+Q60692); experiment: Hydrolysis of fluorogenic substrates by isolated 20S proteasomes; assay type: biochemical; conditions: for "chimotrypsin-like" activity (hydrolysis of Suc-LLVY-MCA), comparison of four HIV-1 protease inhibitors: different batch of purified proteasomes, increasing concentrations
T1 construct: 20S proteasomes isolated from murine B8 fibroblasts; endogenous in cells; host or cells: murine B8 fibroblasts; 20S proteasome purified from the cells
Procedure: FIGS. 4B, 4C and 4D show the hydrolysis of the fluorogenic substrate (100 μM Suc-LLVY-MCA, 100 μM (Z)-GGL-MCA and 400 μM Bz-VGR-MCA) of the 20S proteasomes isolated from murine B8 fibroblasts, as a function of variable concentrations of ritonavir and of LLnL (N-acetyl-L-leucinyl-L-leucinal-L-norleucinal, known inhibitor of the proteasome). The results are reported for one hour of digestion with the 20S proteasome (500 ng) in a final volume of 100 μl. The values were located in a linear detection domain and are the mean values of triplicates with standard errors of less than 3%.
The hydrolysis of Suc-LLVY-MCA by the 20S murine proteasomes was tested according to the method described in Example 4.2. under identical conditions except for the fact that a different batch of purified proteasomes was used. The hydrolysis of Suc-LLVY-MCA was measured in the presence of increasing concentrations of ritonavir, nelfinavir (Roche), saquinavir (mesylate) and indinavir (active ingredient of Crixivan® marketed by Merck and Sharp and Dohme). The HIV protease inhibitors were dissolved beforehand in ethanol, methanol, DMSO and water respectively, for use in vitro (FIG. 4E).

cytotoxic T lymphocytes [2] = assay type: in vivo, C57BL/6 mice; conditions: for swelling of the footpad after injection of LCMV: mice infected in the footpad with LCMV-WE, swelling after seven to eight days
cytotoxic T lymphocytes [3] = assay type: in vivo, C57BL/6 mice; conditions: splenocytes eight days after i.v. LCMV-WE; EL4 cells sensitized with GP33-41 or NP peptide
[4] = patients with hepatic cytolysis (cytolysis +)
[5] = patients without hepatic cytolysis (cytolysis −)
[6] = 100 μM substrate, one hour digestion, 500 ng 20S proteasome

Compound: CC(C)(C)NC(=O)[C@@H]1CN(Cc2cccnc2)CCN1C[C@@H](O)C[C@@H](Cc1ccccc1)C(=O)N[C@H]1c2ccccc2C[C@H]1O [indinavir]
- anti-HCV antibody titre (HCV; during the therapy): No increase
- patients in whom the ALAT concentrations increased (HCV; patients coinfected with HCV and HIV): 10%
- Ac index (variation of anti-HCV antibody titre, ratio of the optical densities) (HCV; [4]): 0.98
- variation of CD4 (HCV; [4]): 29.5 cells /mm^3
- variation of CD8 (HCV; [4]): 203.5 cells /mm^3
- variation of HCV-VL (viral HCV load) (HCV; [4]): 2.25 log10 of copies of RNA/ml
- Ac index (variation of anti-HCV antibody titre, ratio of the optical densities) (HCV; [5]): 1.01(+/−0.13)
- variation of CD4 (HCV; [5]): 21.1(+/−68) cells /mm^3
- variation of CD8 (HCV; [5]): 9.2(+/−222) cells /mm^3
- variation of HCV-VL (viral HCV load) (HCV; [5]): +0.41 log10 of copies of RNA/ml
- variation of HCV-VL (viral HCV load) (HCV; patients without hepatic cytolysis (cytolysis −), listed as IDN): 0.41(+/−0.79) log10 of copies of RNA/ml
- "chimotrypsin-like" activity (hydrolysis of Suc-LLVY-MCA), comparison of four HIV-1 protease inhibitors [1]: no inhibition
- swelling of the footpad after injection of LCMV (cytotoxic T lymphocytes [2]): not inhibited
- lysis of the target cells (direct lysis ex vivo after systemic infection) (cytotoxic T lymphocytes [3]): not inhibited

Compound: Cc1c(O)cccc1C(=O)N[C@@H](CSc1ccccc1)[C@H](O)CN1C[C@H]2CCCC[C@H]2C[C@H]1C(=O)NC(C)(C)C [nelfinavir]
- "chimotrypsin-like" activity (hydrolysis of Suc-LLVY-MCA), comparison of four HIV-1 protease inhibitors [1]: no inhibition
- swelling of the footpad after injection of LCMV (cytotoxic T lymphocytes [2]): not inhibited
- lysis of the target cells (direct lysis ex vivo after systemic infection) (cytotoxic T lymphocytes [3]): not inhibited

Compound: CC(C)(C)NC(=O)[C@@H]1C[C@@H]2CCCC[C@@H]2CN1C[C@@H](O)[C@H](Cc1ccccc1)NC(=O)[C@H](CC(N)=O)NC(=O)c1ccc2ccccc2n1 [saquinavir mesylate]
- "chimotrypsin-like" activity (hydrolysis of Suc-LLVY-MCA), comparison of four HIV-1 protease inhibitors [1]: inhibits

Compound: CC(C)(C)NC(=O)[C@@H]1C[C@@H]2CCCC[C@@H]2CN1C[C@@H](O)[C@H](Cc1ccccc1)NC(=O)[C@H](CC(N)=O)NC(=O)c1ccc2ccccc2n1 [saquinavir]
- "chymotrypsin-like" activity of the proteasome ([1]; summary statement): inhibited
- "trypsin" activity of the proteasome ([1]; summary statement): increased
- inhibition of the swelling of the footpads (cytotoxic T lymphocytes [2]; 7th day after the treatment, oral dose of 4 mg per day): up to 73%

Compound: N-acetyl-L-leucinyl-L-leucinal-L-norleucinal [LLnL]
- hydrolysis of the fluorogenic substrate Suc-LLVY-MCA [1, 6]: inhibits in a similar manner
- hydrolysis of the substrate (Z)-GGL-MCA [1, 6]: inhibits in a similar manner
- cleavage of the substrate Bz-VGR-MCA ("trypsin" type activity) ([1]; 400 μM substrate, one hour digestion, 500 ng 20S proteasome): inhibits in a similar manner

— patent US6506555B1, “Use of HIV protease inhibiting compounds” (Institut National de la Sante et de la Recherche Medicale …, priority 1998, dated 2003)
